14 molecules from PubChem BioAssay (NCI) can be followed below.

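Step 1: Grow cells in 96-well plates. Step 2: Expose to compound for 48 hours at 5 concentrations. Step 3: Interpolate endpoints linearly; if unreached, use highest concentration. TGI is the concentration that stops growth completely.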 Where a SMILES comes first, the peptide text is derived from it. [ ]: non-standard residue; d: D form. The star is where a group is joined. ξ: configuration not given here. ξD = NC(CC(=O)O)C(=O)O; Ac3c = NC1(C(=O)O)CC1; Boc = CC(C)(C)OC(=O)*; OtBu = CC(C)(C)O*

Common to all, as to assay: NCI tumour cell line growth inhibition, 48 h
The subject of assay [1] is KM12 colon.
Assay [2] concerns HT29 colon.
Assay [3] deals with SNB-19 CNS.
Assay [4] has as its system MDA-MB-231 breast.
Assay [5] relates to A549 NSCLC.
Assay [6] deals with UO-31 renal.
Assay [7] relates to SN12C renal.
Assay [8] concerns TK-10 renal.
The test system of assay [9] is HCT-116 colon.
The subject of assay [10] is ACHN renal.

As to `[N-]=[N+]=NC[C@H]1OCO[C@H](CN=[N+]=[N-])[C@H]2OCCOCCOc3ccccc3OCCOCCO[C@@H]21`, the TGI in [1], in assay [2], in assay [3], in [4], in [5] and in [6] was above 100 µM each time. Moreover, the TGI in assay [7], in assay [8] and in assay [9] was above 100 µM each time.

In the case of `N#Cc1c(Nc2nc3ccccc3s2)c2ccccc2n2c1nc1ccccc12`, the TGI in assay [1], in [2], in assay [3], in assay [4], in assay [10] and in assay [5] was above 100 µM throughout. Besides, the TGI in assay [6], in [7], in assay [8] and in assay [9] was above 100 µM throughout.

On to `COc1ccc2c(-c3ccc(OCCN(C)C)cc3)c(Oc3ccc(Cl)cc3)c(=O)oc2c1`, for which the TGI in assay [1] was 25.1 µM; in assay [2], above 46.7 µM; in assay [3], 33.6 µM; in assay [4], 33.5 µM; in assay [10], 20.9 µM; in [5], 18.7 µM. In addition, the TGI in assay [6] was 11.9 µM; in assay [7], above 53.3 µM; in assay [8] it was 26.4 µM; in [9] it was 8.49 µM.

Consider `CSCCCNC(=O)c1csc(-c2csc(CCNC(=O)CNC(=O)CNC(=O)CNC(=O)OC(C)(C)C)n2)n1`, for which the TGI in assay [1], in [2], in [3], in assay [4], in assay [10] and in assay [5] was above 100 µM throughout. Also, the TGI in assay [6], in [7], in assay [8] and in assay [9] was above 100 µM in each case.

On to `CC1(C)CCCCCCCCCC(C)(CCCCCCCCCCCCO)C1=O` (stereo not drawn), for which the TGI in assay [1] was determined as 31.1 µM; in assay [2] it was 31 µM; in assay [3], 26.1 µM; in assay [4], 29.9 µM; in assay [10] it was 28.4 µM; in [5], 29.9 µM. Moreover, the TGI was determined as 32.1 µM in [6], 31.4 µM in [7], 31.6 µM in [8] and 31.7 µM in assay [9].

Regarding `CSc1ncc2c(n1)-c1ccccc1OC2NC(C)(C)C` (stereo not drawn), the TGI in assay [1], in assay [2], in [3], in [4], in assay [10] and in assay [5] was above 100 µM in each case. Further, the TGI in [6], in assay [7], in assay [8] and in assay [9] was above 100 µM in each case.

Consider `O/N=C1/C2CC3CC1(c1ccccc1)CC(/C3=N/O)/C2=N\O` (stereo not drawn), for which the TGI in assay [1], in [2], in [3], in assay [4], in assay [10] and in assay [5] was above 100 µM throughout. The TGI in assay [6], in assay [7], in [8] and in assay [9] was above 100 µM throughout.

Consider `CCNc1ncnc2c1nnn2CC`, for which the TGI in assay [1], in [2], in assay [3], in [4], in assay [10] and in [5] was above 100 µM each time. Further, the TGI in assay [6], in assay [7], in assay [8] and in [9] was above 100 µM in each case.

Regarding `Cc1cc(O)ccc1C1(c2ccc(F)cc2)OC(=O)c2ccccc21` (stereo not drawn), the TGI was 7.3 µM in [1]; 18 µM in assay [2]; 15.4 µM in [3]; 26.3 µM in assay [4]; 12.6 µM in assay [10]; 18.3 µM in assay [5]. For the same molecule, the TGI stood at 16.1 µM in assay [6], 8.23 µM in assay [7], 15.5 µM in assay [8] and 12.6 µM in assay [9].

`COc1ccc2c(c1OC)C(=O)O[C@@H]2[C@H]1c2cc3c(cc2CCN1C)OCO3`: the TGI in [1], in assay [2], in assay [3], in assay [4], in [10] and in assay [5] was above 100 µM in each case. The TGI in [6], in assay [7], in assay [8] and in assay [9] was above 100 µM throughout.

Take `COC(=O)C1(NC(=O)C(CC(=O)OC(C)(C)C)NC(=O)OC(C)(C)C)CC1` (stereo not drawn) (Boc-[ξD](OtBu)-[Ac3c]-OMe): the TGI in assay [1], in assay [2], in assay [3], in [4], in [10] and in [5] was above 100 µM throughout. Besides, the TGI in [6], in [7], in [8] and in assay [9] was above 100 µM throughout.

Regarding `ONC1=Nc2ccccc2OCc2cc(Br)c(Br)cc2COc2ccccc2N=C1NO`, the TGI in assay [1] was above 46 µM; in assay [2] it was above 43.5 µM; in [3], 24.2 µM; in [4] it was 35.5 µM; in assay [10] it was above 43.3 µM; in assay [5], above 54 µM. The TGI is above 54.4 µM in assay [6], 27.3 µM in [7], above 59.6 µM in [8] and 32.9 µM in assay [9].

As for `O=C1c2ccccc2-c2nc(-c3ccccc3)cc3c2c1nc1ccccc13`, the TGI in assay [1] stood at 50.3 µM; in [2], 25.9 µM; in [3], 52.9 µM; in assay [4], 59.3 µM; in [10], 91.5 µM; in assay [5] it was 52.9 µM. For the same molecule, the TGI in assay [6] is 84.1 µM; in assay [7], 32.8 µM; in assay [8], 42.5 µM; in assay [9], 36.5 µM.

For `COC(=O)/C(=C\c1ccco1)P(=O)(OC)OC`, the TGI in assay [1] is above 100 µM; in assay [2] it was 69.7 µM; in [3], above 100 µM; in assay [4], above 100 µM; in assay [10], above 100 µM; in assay [5], above 100 µM. Also, the TGI in [7], in assay [8] and in assay [9] was above 100 µM throughout.
